The assay has as its target Replicase polyprotein 1ab (Severe acute respiratory syndrome coronavirus 2, UniProt P0DTD1). Description: Inhibition of SARS-CoV-2 main protease expressed in Escherichia coli BL21 (DE3) using MDA-AVLQSGFR-Lys(Dnp)-Lys-NH2 as substrate incubated for 10 mins by FRET analysis.
Usually IC50 stands for the concentration at which inhibition is half-maximal. `O=C(CCc1ccccc1)NCc1nc(-c2ccc(C(F)(F)F)cc2)no1` gave an IC50 of 90.5 µM.

Compound `O=C(NCc1nc(-c2ccc(C(F)(F)F)cc2)no1)c1ccccc1` had an IC50 of 62 µM. The IC50 values of the last two compounds are within 1.5-fold of each other. For `CC1=C(c2ccccc2)C1C(=O)NC(Cc1cccc(F)c1)c1nc(-c2ccc(C(F)(F)F)cc2)no1` (stereo not given) the value was 14.2 µM; for `CC1=C(c2ccccc2)C1C(=O)NCc1nc(-c2cccc(C(F)(F)F)c2)no1` (stereo not given), 14.3 µM. As for `CC1=C(c2ccccc2)C1C(=O)NC(Cc1ccccc1F)c1nc(-c2ccc(C(F)(F)F)cc2)no1` (stereo not given), the figure is 7.48 µM; as for `O=C(/C=C/c1ccccc1)NCc1nc(-c2ccc(C(F)(F)F)cc2)no1`, 46.3 µM. For `CC1=C(c2ccccc2)C1C(=O)NC(CC1CCCCC1)c1nc(-c2ccc(C(F)(F)F)cc2)no1` (stereo not given) the value was 19.4 µM.

Compound `O=C(/C=C/c1ccco1)NCc1nc(-c2ccc(C(F)(F)F)cc2)no1` showed an IC50 of 60.5 µM. In the case of `CC1=C(c2ccccc2)C1C(=O)NCc1nc(-c2ccccc2)no1` (stereo not given), the IC50 stood at 79.6 µM. The IC50 values of the last two compounds are within 1.5-fold of each other. For `CC1=C(c2ccccc2)C1C(=O)NC(Cc1ccc(F)cc1)c1nc(-c2ccc(C(F)(F)F)cc2)no1` (stereo not given) the value was 16.5 µM; for `CC1=C(c2ccccc2)C1C(=O)NCc1nc(-c2ccc(C(F)(F)F)cc2)no1` (stereo not given), 6.71 µM; for `O=C(C#Cc1ccccc1)NCc1nc(-c2ccc(C(F)(F)F)cc2)no1`, 46.9 µM. Compound `C/C=C/C(=O)NCc1nc(-c2ccc(C(F)(F)F)cc2)no1` displayed an IC50 of 250 µM. For the compound `CC1=C(c2ccccc2)C1C(=O)NCc1nc(-c2ccccc2C(F)(F)F)no1` (stereo not given), the IC50 came to 66.9 µM. Against the preceding compound, the IC50 is about 3.7-fold lower.

`O=C(/C=C/c1cccs1)NCc1nc(-c2ccc(C(F)(F)F)cc2)no1` gave an IC50 of 54.6 µM. For `CC1=C(c2ccccc2)C1C(=O)NC(Cc1ccc2ccccc2c1)c1nc(-c2ccc(C(F)(F)F)cc2)no1` (stereo not given) the value was 6.47 µM. Compound `O=C(/C=C/c1ccccn1)NCc1nc(-c2ccc(C(F)(F)F)cc2)no1` displayed an IC50 of 102 µM. Against the preceding compound, the IC50 is about 16-fold higher. On to `CC1=C(c2ccccc2)C1C(=O)NC(CC1CC1)c1nc(-c2ccc(C(F)(F)F)cc2)no1` (stereo not given), for which the midpoint of inhibition, the IC50, lay at 76.8 µM. This IC50 and that of the compound before are within 1.5-fold of each other. For `CC1=C(c2ccccc2)C1C(=O)NC(Cc1ccccc1)c1nc(-c2ccc(C(F)(F)F)cc2)no1` (stereo not given) the value was 5.27 µM. `CC1=C(c2ccccc2)C1C(=O)NC(Cc1cc2ccccc2[nH]1)c1nc(-c2ccc(C(F)(F)F)cc2)no1` (stereo not given) had an IC50 of 14.7 µM.

(Values after ChEMBL document CHEMBL5252623, “Discovery of 3-phenyl-1,2,4-oxadiazole derivatives as a new class of SARS-CoV-2 main protease inhibitors” (Bioorg Med Chem Lett, 2023).)
